# Test results reported in ChEMBL document CHEMBL1201862, “PubChem BioAssay data set” (2004).
#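 Briefly, cells in 96-well plates were exposed to five compound concentrations for 48 h, and endpoints were estimated by linear interpolation. The concentration for 50% growth inhibition is given as GI50.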 The source made the active and inactive calls. No stated cut-off is given here; in the data, active = GI50 up to about 1.1 µM and inactive = higher.
# Key:
# Assay in all cases: DTP human tumour cell line panel, 48 h
# [1] = tested on: SK-OV-3
# [2] = tested on: SK-MEL-2
# [3] = tested on: UACC-257
# [4] = tested on: SNB-19
# [5] = tested on: OVCAR-4
# [6] = tested on: RPMI-8226
# [7] = tested on: HT-29
# [8] = tested on: NCI-H460
# [9] = tested on: COLO 205
# [10] = tested on: SW-620
# [11] = tested on: MOLT-4
# [12] = tested on: LOX IMVI
# [13] = tested on: CCRF-CEM
# [14] = tested on: OVCAR-5
# [15] = tested on: M14
# [16] = tested on: HCT-15
# [17] = tested on: NCI/ADR-RES
# [18] = tested on: HCC 2998
# [19] = tested on: EKVX
# [20] = tested on: 786-0
Structure (SMILES),GI50 [1],GI50 [2],GI50 [3],GI50 [4],GI50 [5],GI50 [6],GI50 [7],GI50 [8],GI50 [9],GI50 [10],GI50 [11],GI50 [12],GI50 [13],GI50 [14],GI50 [15],GI50 [16] [µM],GI50 [17],GI50 [18],GI50 [19],GI50 [20]
Oc1c(Br)c(-c2ccccc2)nc2ccccc12,> 100 µM (inactive),> 10 µM (inactive),36.7 µM (inactive),> 10 µM (inactive),39.6 µM (inactive),20.7 µM (inactive),> 60.4 µM (inactive),10 µM (inactive),> 21.7 µM (inactive),97.5 µM (inactive),8.15 µM (inactive),64 µM (inactive),44 µM (inactive),> 10 µM (inactive),47 µM (inactive),> 62.5,35.1 µM (inactive),> 10 µM (inactive),7.85 µM (inactive),–
O=C1CCCn2c3ccccc3c3ccnc1c32,44.7 µM (inactive),47.1 µM (inactive),29.9 µM (inactive),47.3 µM (inactive),49 µM (inactive),23.6 µM (inactive),23.9 µM (inactive),34 µM (inactive),41.8 µM (inactive),41.1 µM (inactive),30.8 µM (inactive),36.1 µM (inactive),27.8 µM (inactive),35.2 µM (inactive),–,41.7,36.6 µM (inactive),41.4 µM (inactive),12.2 µM (inactive),–
CC1=C(C(=O)N[C@@H](Cc2ccccc2)C(=O)O)N2C(=O)[C@@H](NC(=O)[C@@H](N)CC(C)C)[C@H]2SC1,–,> 100 µM (inactive),> 100 µM (inactive),> 100 µM (inactive),> 100 µM (inactive),> 100 µM (inactive),–,> 100 µM (inactive),> 100 µM (inactive),> 100 µM (inactive),> 100 µM (inactive),> 100 µM (inactive),> 100 µM (inactive),> 100 µM (inactive),> 100 µM (inactive),> 100,> 100 µM (inactive),> 100 µM (inactive),> 100 µM (inactive),> 100 µM (inactive)
O=P1(Oc2ccc(Cl)cc2Cl)Oc2ccc3ccccc3c2-c2c(ccc3ccccc23)O1,59.7 µM (inactive),18.7 µM (inactive),59 µM (inactive),29.5 µM (inactive),27.9 µM (inactive),18.2 µM (inactive),42.1 µM (inactive),32.4 µM (inactive),46.5 µM (inactive),32.4 µM (inactive),19.9 µM (inactive),24 µM (inactive),28 µM (inactive),59.7 µM (inactive),–,26.5,> 68.5 µM (inactive),24.9 µM (inactive),25.4 µM (inactive),–
COC(=O)c1n[nH]c(C)c1/N=N/N(C)CCC#N,19.7 µM (inactive),23.6 µM (inactive),50.7 µM (inactive),28.7 µM (inactive),12.9 µM (inactive),10.2 µM (inactive),23.3 µM (inactive),14.2 µM (inactive),13.4 µM (inactive),14 µM (inactive),3.33 µM (inactive),8.18 µM (inactive),7.67 µM (inactive),–,30.8 µM (inactive),14.2,16.2 µM (inactive),19.5 µM (inactive),13.7 µM (inactive),17.7 µM (inactive)
Cc1c(-c2ccccc2)c(C#N)c2nnn(C)c(=O)n12,96.2 µM (inactive),> 100 µM (inactive),> 100 µM (inactive),> 100 µM (inactive),> 100 µM (inactive),> 100 µM (inactive),> 100 µM (inactive),> 100 µM (inactive),> 100 µM (inactive),> 100 µM (inactive),–,> 100 µM (inactive),> 100 µM (inactive),> 100 µM (inactive),> 100 µM (inactive),> 100,> 100 µM (inactive),> 100 µM (inactive),> 100 µM (inactive),> 100 µM (inactive)
COC(=O)C1=C(C)N2[C@H](C(=O)O)CO[C@@]2(C)[C@H](C(=O)OC)[C@H]1c1cccc([N+](=O)[O-])c1,> 100 µM (inactive),> 100 µM (inactive),> 100 µM (inactive),> 100 µM (inactive),> 100 µM (inactive),> 100 µM (inactive),> 100 µM (inactive),> 100 µM (inactive),> 100 µM (inactive),> 100 µM (inactive),> 100 µM (inactive),–,> 100 µM (inactive),> 100 µM (inactive),> 100 µM (inactive),> 100,> 100 µM (inactive),> 100 µM (inactive),> 100 µM (inactive),> 100 µM (inactive)
